Data from patent US20260159500A1, “KINESIN KIF18A INHIBITOR AND USE THEREOF” (SHANGHAI APEIRON THERAPEUTICS COMPANY LIMITED, priority 2022, published 2026).
pIC50: −log10 of the molar value. Read-outs that look alike come from different tables or passages of the source.

What was measured:
OVCAR3 cells = assay: Cell proliferation activity test in OVCAR3 cells (CyQUANT Direct); type: cell-based; settings: 3 days incubation, CyQUANT fluorescence detection, read-out: OVCAR-3_IC50_nM
How it was run: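 Log-phase cells in RPMI-1640 with 10% FBS were seeded overnight, then exposed to compound at final 0–10 μM (0.2% DMSO) for 3 days at 37 °C, 5% CO2. Proliferation was read by CyQUANT Direct fluorescence after 60 min at 37 °C.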

HT29 cells = assay: CyQuant cell proliferation activity test in HT29 cells; type: cell-based; settings: 2000 cells per well, 3 days incubation, IC50 by XLFIT, read-out: HT29_IC50_nM
How it was run: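 Cells seeded at 2000/well in RPMI-1640 with 10% FBS, overnight, then exposed 3 days at 37 °C to compound from 3000 nM top, 3-fold, 9 points, 0.2% DMSO. CyQuant read after 1 h; IC50 from curve fit.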

[1] = target: T1, Human KIF18A (amino acid sequence 1-417) (Homo sapiens, UniProt Q8NI77); assay: Enzymatic activity test (ADP-Glo, microtubule-stimulated KIF18A ATPase); type: biochemical; settings: 60 μg/mL microtubules, 25 μM ATP, 2.5 nM KIF18A protein, 120 min at ambient temperature, read-out: KIF18A_nM
T1 construct: purchased Viva Biotech (Shanghai) Ltd
T1 sequence (Q8NI77 1-417): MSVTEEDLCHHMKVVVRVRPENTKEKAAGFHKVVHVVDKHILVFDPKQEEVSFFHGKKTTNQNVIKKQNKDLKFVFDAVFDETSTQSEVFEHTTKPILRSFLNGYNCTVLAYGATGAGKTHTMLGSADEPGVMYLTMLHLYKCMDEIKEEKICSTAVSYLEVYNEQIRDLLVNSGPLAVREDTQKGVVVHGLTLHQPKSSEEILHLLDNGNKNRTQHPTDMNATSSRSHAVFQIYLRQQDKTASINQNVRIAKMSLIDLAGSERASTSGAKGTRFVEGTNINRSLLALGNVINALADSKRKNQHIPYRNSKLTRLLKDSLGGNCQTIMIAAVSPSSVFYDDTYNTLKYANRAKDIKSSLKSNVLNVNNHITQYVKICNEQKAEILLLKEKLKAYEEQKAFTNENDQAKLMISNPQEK
How it was run: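 Microtubule-stimulated ATPase of KIF18A(1-417) run with 60 μg/mL microtubules, 25 μM ATP and 2.5 nM enzyme, compounds at 0-10 μM final, 120 min at ambient temperature. ADP formed was read by ADP-Glo chemiluminescence after two 30-min reagent incubations.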

Row | Compound | pIC50 (OVCAR3 cells; Homo sapiens, OVCAR-3, 72 h) | pIC50 (HT29 cells; Homo sapiens, HT-29, 72 h) | pIC50 [1] | pIC50 (OVCAR3 cells) | pIC50 (HT29 cells)
1 | CC1OCc2c1cc(NC(=O)c1ccc(NS(=O)(=O)CCO)cc1N1CCC3(CC1)CC3)nc2N1CCC(F)(F)CC1 (stereo not drawn) [Example 9, N-(4-(4,4-difluoropiperidin-1-yl)-1-methyl-1,3-dihydrofuro[3,4-c]pyridin-6-yl)-4-((2-hydroxyethyl)sulfonamido)-2-(6-azaspiro[2.5]octan-6-yl)benzamide] | 7.26 | 7.43 | 7.31 |  | 
2 | O=C(Nc1cc2cccnc2c(N2CCC(F)(F)CC2)c1C(F)(F)F)c1ccc(NS(=O)(=O)CCO)cc1N1CCC2(CC1)CC2 [Example 72, N-(8-(4,4-difluoropiperidin-1-yl)-7-(trifluoromethyl)quinolin-6-yl)-4-((2-hydroxyethyl)sulfonamido)-2-(6-azaspiro[2.5]octan-6-yl)] | < 5.52 | < 5.52 | < 5.52 |  | 
3 | O=C(Nc1cc2ccc(O)nc2c(N2CCC(F)(F)CC2)n1)c1ccc(NS(=O)(=O)CCO)cc1N1CCC2(CC1)CC2 [Example 54, 2-{6-azaspiro[2.5]octan-6-yl}-N-[8-(4,4-difluoropiperidin-1-yl)-2-hydroxy-1,7-naphthyridin-6-yl]-4-(2-hydroxyethanesulfonamido)benzamide] | 8.22 | 7.74 | 7.57 |  | 
4 | C[C@@H](CO)S(=O)(=O)Nc1ccc(C(=O)Nc2cc3cccnc3c(N3CCC(F)(F)CC3)c2F)c(N2CCC3(CC2)CC3)c1 [Example 99, 2-{6-azaspiro[2.5]octan-6-yl}-N-[8-(4,4-difluoropiperidin-1-yl)-7-fluoroquinolin-6-yl]-4-[(2S)-1-hydroxypropane-2-sulfonamido]benzamide] | 7.77 | 7.66 | 6.76 |  | 
5 | Cc1cc2cc(NC(=O)c3ccc(NS(=O)(=O)CCO)cc3N3CCC4(CC3)CC4)cc(N3CCC(F)(F)CC3)c2nc1N [Example 89, N-[2-Amino-8-(4,4-difluoropiperidinyl)-3-methyl (6-quinolinyl)](2-(6-azaspiro[2.5]octan-6-yl)-4-{[(2-hydroxyethyl)sulfonyl]amino}phenyl)formamide] |  |  | 6.75 | 7.49 | 7.49
6 | [2H]c1c(NC(=O)c2ccc(NS(=O)(=O)CCO)cc2N2CCC3(CC2)CC3)cc2cccnc2c1N1CCC(F)(F)CC1 [Example 70, N-(8-(4,4-difluoropiperidin-1-yl)quinolin-6-yl-7-d)-4-((2-hydroxyethyl)sulphonamino)-2-(6-azaspiro[2.5]octan-6-yl)benzamide] | 8.05 | 7.80 | 7.37 |  | 

The remaining compounds from weak to strong by pIC50 (OVCAR3 cells; Homo sapiens, OVCAR-3, 72 h), led by results:

Row | pIC50 (OVCAR3 cells; Homo sapiens, OVCAR-3, 72 h) | pIC50 (HT29 cells; Homo sapiens, HT-29, 72 h) | pIC50 [1] | Compound | pIC50 (OVCAR3 cells) | pIC50 (HT29 cells)
7 | 5.82 | 5.75 | < 5.52 | N#Cc1c(NC(=O)c2ccc(NS(=O)(=O)CCO)cc2N2CCC3(CC2)CC3)cc2cccnc2c1N1CCC(F)(F)CC1 [Example 74, N-(7-cyano-8-(4,4-difluoropiperidin-1-yl)quinolin-6-yl)-4-((2-hydroxyethyl)sulfon amido)-2-(6-azaspiro[2.5]oct-6-yl)benzamide] |  | 
8 | 7.46 | 7.10 | 7.64 | O=C(Nc1cc(N2CCC(F)(F)CC2)c2nc(O)ccc2c1)c1ccc(NS(=O)(=O)CCO)cc1N1CCC2(CC1)CC2 [Example 66] |  | 
9 | 7.68 | 7.59 | 6.98 | O=C(Nc1cc2cccnc2c(N2CCC(F)(F)CC2)n1)c1ccc(NS(=O)(=O)CCO)cc1N1CCC2(CC1)CC2 [Example 44] |  | 
10 | 8.15 | 7.77 | 6.67 | Nc1nc2c(N3CCC(F)(F)CC3)c(F)c(NC(=O)c3ccc(NS(=O)(=O)CCO)cc3N3CCC4(CC3)CC4)cc2s1 [Example 42, N-[2-amino-4-(4,4-difluoropiperidin-1-yl)-5-fluoro-1,3-benzothiazol-6-yl]-2-{6-azaspiro[2.5]octan-6-yl}-4-(2-hydroxyethanesulfonamido)benzamide] |  | 
